*1 amine or outer side, *2 acyl side, *3 side chain or, on linkers, in order; H or OH if unused. Where a SMILES comes first, the peptide text is derived from it. Bridges are numbered along the chain shown (N, C = ends). [ ]: non-standard residue; d: D form. The star is where a group is joined. X1 = COc1cc2cc(c1Cl)N(C)C(=O)C[C@H](OC(=O)[C@H](C)N(C)C(=O)CCSSC(C)CCC(=O)*)[C@]1(C)O[C@H]1[C@H](C)[C@@H]1C[C@@](O)(NC(=O)O1)[C@H](OC)/C=C/C=C(\C)C2; 1Nal = N[C@@H](Cc1cccc2ccccc12)C(=O)O; TBMB = c1c(C[*:1])cc(C[*:3])cc1C[*:2]; Tle = CC(C)(C)[C@H](N)C(=O)O; βAla = NCCC(=O)O; Sar = CNCC(=O)O
Tested on: MDA-MB-231 xenograft
Test: In vivo efficacy of BT1718 in MDA-MB-231 xenograft
Set-up: species or system Mus Musculus; key to Best response at 10 mg/kg: CR complete response; PR partial response
Method: The objective of this study was to evaluate the in vivo anti-tumor efficacy of BT1718in treatment of HT1080, NCI-H292, NCI-H1975, MDA-MB-231, HCC1806, RPMI2650, HCT-15, HT-29 and SNU-16 xenograft in BALB/c nude mice.
The HT1080, NCI-H292, NCI-H1975, MDA-MB-231, HCC1806, RPMI2650, HCT-15, HT-29 and SNU-16 tumor cells were maintained in vitro as a monolayer culture in medium supplemented with 10% heat inactivated fetal bovine serum at 37° C. in an […]. The tumor cells will be routinely subcultured twice weekly by trypsin-EDTA treatment. The cells growing in an exponential growth phase will be harvested and counted for tumor inoculation.
Mouse was inoculated subcutaneously at the right flank with tumor cells for tumor development. The animals were randomized and treatment was started when the average tumor reaches certain volume for the efficacy study, the inoculating cell amounts and starting tumor size were shown as below in Table 9. The test article administration and the animal numbers in each group were shown in the experimental design in Table 10.
All the procedures related to animal handling, care and the treatment in the study were performed according to the guidelines of the Association for Assessment and Accreditation of Laboratory Animal Care (AAALAC). At the time of routine monitoring, the animals were daily checked for any effects of tumor growth and treatments on normal behavior such as mobility, food and water consumption (by looking only), body weight gain/loss (body weights were measured every day), eye/hair matting and any other abnormal effect as stated in the protocol. Death and observed clinical signs were recorded on the basis of the numbers of animals within each subset.
The major endpoint was to see if the tumor growth could be delayed or mice could be cured. Tumor size was measured three times weekly in two dimensions using a caliper, and the volume was expressed in mm^3 using the formula: V=0.5 a×b^2 where a and b are the long and short diameters of the tumor, respectively. The tumor size was then used for calculations of T/C value. The T/C value (in percent) is an indication of antitumor effectiveness; T and C are the mean volumes of the treated and control groups, respectively, on a given day.
TGI was calculated for each group using the formula: TGI (%)=[1−(Ti−T0)/(Vi−V0)]×100; Ti is the average tumor volume of a treatment group on a given day, T0 is the average tumor volume of the treatment group on the day of treatment start, Vi is the average tumor volume of the vehicle control group on the same day with Ti, and V0 is the average tumor volume of the vehicle group on the day of treatment start.
Summary statistics, including mean and the standard error of the mean (SEM), are provided for the tumor volume of each group at each time point.
Statistical analysis of difference in tumor volume among the groups was conducted on the data obtained at the best therapeutic time point after the final dose.
A one-way ANOVA was performed to compare tumor volume among groups, and when a significant F-statistics (a ratio of treatment variance to the error variance) was obtained, comparisons between groups were carried out with Games-Howell test. All data were analyzed using Prism. P<0.05 was considered to be statistically significant.

[1] = MDA-MB-231, 10 mpk, biw, day 14

COc1cc2cc(c1Cl)N(C)C(=O)C[C@H](OC(=O)[C@H](C)N(C)C(=O)CCSSC(C)CCC(=O)NCCC(=O)N(C)CC(=O)N(C)CC(=O)N(C)CC(=O)N(C)CC(=O)N(C)CC(=O)N(C)CC(=O)N(C)CC(=O)N(C)CC(=O)N(C)CC(=O)N(C)CC(=O)N[C@@H](C)C(=O)N[C@H]1CSCc3cc4cc(c3)CSC[C@H](NC(=O)[C@@H](C)NC(=O)[C@H](Cc3cccc5ccccc35)NC(=O)[C@H](CCC(=O)O)NC(=O)[C@H](CC(N)=O)NC(=O)[C@@H](C)NC1=O)C(=O)N[C@@H](CCC(=O)O)C(=O)N[C@@H](CC(=O)O)C(=O)N[C@@H](Cc1ccccc1)C(=O)N[C@@H](Cc1ccc(O)cc1)C(=O)N[C@@H](CC(=O)O)C(=O)N[C@@H](C(C)(C)C)C(=O)N[C@H](C(N)=O)CSC4)[C@]1(C)O[C@H]1[C@H](C)[C@@H]1C[C@@](O)(NC(=O)O1)[C@H](OC)/C=C/C=C(\C)C2 (some centres unmarked) [BT1718] ({X1-βAla}-[Sar][Sar][Sar][Sar][Sar][Sar][Sar][Sar][Sar][Sar]AC[dA]NE[1Nal][dA]CEDFYD[Tle]C-NH2; linker 12-18-25 via TBMB (inferred))
tumor behaviour on resumed treatment (10 mg/kg biw re-treatment): slow re-growth
Body Weight (1 mpk biw, day 0): 23.4 ± 0.5 g
Tumor Volume (1 mpk biw, day 0): 187 ± 6 mm^3
Body Weight (1 mpk biw, day 2): 23.3 ± 0.6 g
Tumor Volume (1 mpk biw, day 2): 288 ± 25 mm^3
Body Weight (1 mpk biw, day 4): 23.3 ± 0.6 g
Tumor Volume (1 mpk biw, day 4): 435 ± 25 mm^3
Body Weight (1 mpk biw, day 7): 24.6 ± 0.5 g
Tumor Volume (1 mpk biw, day 7): 636 ± 53 mm^3
Body Weight (1 mpk biw, day 9): 24.6 ± 0.6 g
Tumor Volume (1 mpk biw, day 9): 822 ± 117 mm^3
Body Weight (1 mpk biw, day 11): 24.1 ± 0.1 g
Tumor Volume (1 mpk biw, day 11): 979 ± 51 mm^3
Body Weight (1 mpk biw, day 14): 24.9 ± 0.5 g
Tumor Volume (1 mpk biw, day 14): 1221 ± 62 mm^3
Body Weight (3 mpk biw, day 0): 23.0 ± 0.9 g
Tumor Volume (3 mpk biw, day 0): 187 ± 11 mm^3
Body Weight (3 mpk biw, day 2): 22.5 ± 1.0 g
Tumor Volume (3 mpk biw, day 2): 281 ± 23 mm^3
Body Weight (3 mpk biw, day 4): 22.3 ± 1.0 g
Tumor Volume (3 mpk biw, day 4): 389 ± 21 mm^3
Body Weight (3 mpk biw, day 7): 23.8 ± 1.1 g
Tumor Volume (3 mpk biw, day 7): 547 ± 38 mm^3
Body Weight (3 mpk biw, day 9): 23.8 ± 1.1 g
Tumor Volume (3 mpk biw, day 9): 729 ± 74 mm^3
Body Weight (3 mpk biw, day 11): 23.6 ± 1.1 g
Tumor Volume (3 mpk biw, day 11): 829 ± 79 mm^3
Body Weight (3 mpk biw, day 14): 23.9 ± 1.3 g
Tumor Volume (3 mpk biw, day 14): 1021 ± 65 mm^3
Body Weight (10 mpk biw, day 0): 23.3 ± 1.0 g
Tumor Volume (10 mpk biw, day 0): 187 ± 10 mm^3
Body Weight (10 mpk biw, day 2): 22.9 ± 1.3 g
Tumor Volume (10 mpk biw, day 2): 270 ± 25 mm^3
Body Weight (10 mpk biw, day 4): 22.2 ± 0.9 g
Tumor Volume (10 mpk biw, day 4): 312 ± 27 mm^3
Body Weight (10 mpk biw, day 7): 23.3 ± 1.2 g
Tumor Volume (10 mpk biw, day 7): 294 ± 31 mm^3
Body Weight (10 mpk biw, day 9): 23.0 ± 1.1 g
Tumor Volume (10 mpk biw, day 9): 248 ± 23 mm^3
Body Weight (10 mpk biw, day 11): 21.6 ± 1.0 g
Tumor Volume (10 mpk biw, day 11): 204 ± 19 mm^3
Body Weight (10 mpk biw, day 14): 24.3 ± 1.1 g
Tumor Volume (10 mpk biw, day 14): 158 ± 20 mm^3
Best response at 10 mg/kg (MDA-MB-231, 10 mg/kg): CR
TGI (MDA-MB-231, 1 mpk, biw, day 14): 7.6%
Tumor Volume (MDA-MB-231, 1 mpk, biw, day 14): 1221 ± 62 mm^3
TGI (MDA-MB-231, 3 mpk, biw, day 14): 25.5%
Tumor Volume (MDA-MB-231, 3 mpk, biw, day 14): 1021 ± 65 mm^3
TGI [1]: 102.6%
Tumor Volume [1]: 158 ± 20 mm^3
Minimally Effective Dose IV BIW (MDA-MB-231, dose leading to tumor-stasis): <10 mg/kg
dosing suspension until re-growth to 150 mm3 (after 10 mg/kg biw): 3 weeks
tumor volume after regression (after 2-3 weeks 10 mg/kg biw): below 50 mm3
